Earlier results in US12194020B2, “Reversing baldness through cannabinoid receptor activation” (priority 2017, dated 2025).

Tests used:
[1] = system: human scalp hair follicles (HF); details: human HF organ culture
CB2 = CB2 (Homo sapiens, UniProt P34972)
[2] = bimatoprost applied to the base of the fingernails
NO production = details: read-out: IC50, inhibits NO production

CB2, sequence (P34972 whole entry, species assumed): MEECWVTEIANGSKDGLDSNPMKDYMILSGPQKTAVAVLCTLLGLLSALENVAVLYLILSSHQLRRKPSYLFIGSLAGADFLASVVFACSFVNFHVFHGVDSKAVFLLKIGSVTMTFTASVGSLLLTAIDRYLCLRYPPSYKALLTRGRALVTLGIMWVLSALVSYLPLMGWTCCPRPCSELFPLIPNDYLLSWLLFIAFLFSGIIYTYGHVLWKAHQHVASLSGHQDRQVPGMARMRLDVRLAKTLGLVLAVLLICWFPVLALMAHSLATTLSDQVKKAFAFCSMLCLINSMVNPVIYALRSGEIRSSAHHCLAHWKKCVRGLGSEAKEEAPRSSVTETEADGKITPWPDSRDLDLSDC

## CCCCC/C=C\C/C=C\C/C=C\C/C=C\CCCC(=O)NCCO [AEA, N-arachidonoylethanolamide]
[1]
  apoptosis of cultured human HF / hair matrix keratinocytes: stimulates apoptosis
  hair matrix / HF keratinocyte proliferation: significantly (P<0.05) and dose-dependently inhibited
  hair shaft elongation: significantly (P<0.05) and dose-dependently inhibited

## Cc1c(C(=O)NN2CCCCC2)nn(-c2ccc(Cl)cc2Cl)c1-c1ccc(Cl)cc1 [SR141716A]
CB2
  affinity for CB2: very low affinity

## CCCCCc1cc(O)c2c(c1)OC(C)(C)[C@@H]1CCC(C)=C[C@@H]21 [THC, Δ^9-tetrahydrocannabinol]
[1]
  apoptosis of cultured human HF / hair matrix keratinocytes: induced
  catagen development: premature catagen development
  hair matrix / HF keratinocyte proliferation: suppressed proliferation
  hair shaft elongation: significantly inhibited

## CCNC(=O)CCC/C=C\C[C@@H]1[C@@H](/C=C/[C@@H](O)CCc2ccccc2)[C@H](O)C[C@@H]1O [bimatoprost]
[2]
  increase in fingernail growth from baseline: 16.9%

## C=CCc1ccc(O)c(-c2cc(CC=C)ccc2O)c1 [magnolol]
NO production
  IC50: ~6.2 µM

## desulfohaplosamate
CB2
  affinity for CB2: higher affinity

## haplosamate A
CB1
  affinity for CB1: strong affinity
